Assay results as given in patent publication US20230279025A1, “KRAS G12D INHIBITORS” (Mirati Therapeutics, Inc., priority 2020, published 2023).
Read-outs that look alike come from different tables or passages of the source.

Tests used:
[1] = test system: KRas G12D-mediated phosphorylation of ERK in AGS cells (ATCC CRL-1739) expressing G12D; experiment: Inhibition of KRas G12D-mediated Phosphorylation of ERK in AGS cells; assay type: cell-based; settings: Homo sapiens
Experimental: Cells were plated in tissue culture treated 96 well plates at a density of 40,000 cells/well and allowed to attach for 12-14 hours. Diluted compounds were then added in a final concentration of 0.5% DMSO. After 3 hours, the medium was removed, 150 μL of 4.0% formaldehyde was added and the plates incubated at room temperature for 20 minutes. The plates were washed with PBS, and permeabilized with 150 μL of ice cold 100% methanol for 10 minutes. Non-specific antibody binding to the plates was blocked using […] Licor blocking buffer (Li-Cor Biotechnology, Lincoln Nebr.) for 1 hour at room temperature.
The amount of phospho-ERK was determined using an antibody specific for the phosphorylated form of ERK and compared to the amount of GAPDH. Primary antibodies used for the detection were added as follows: Phospho-ERK(Cell Signaling cs-9101) diluted 1:500 and GAPDH(Millipore MAB374) diluted 1:5000 in Licor block+0.05% Tween 20. The plates were incubated for 2 hours at room temperature. The plates were washed with PBS+0.05% Tween 20.
Secondary antibodies used to visualize primary antibodies were added as follows: Anti-rabbit-680 diluted 1:1000 and Anti-mouse-800 diluted 1:1000 both in Licor block+0.05% TweeN20, and were incubated for 1 hour at room temperature. The plates were washed with PBS +0.05% Tween 20. A 100 μL aliquot of PBS was added to each well and the plates were read on a Li-Cor Odyssey CLX plate reader.

[2] = target: T1, KRas G12D (Homo sapiens (Human), UniProt P01116, G12D); experiment: KRas G12D Binding Assay (TR-FRET displacement of Cy5 labelled tracer); settings: GDP-loaded KRAS G12D (amino acids 1:169), 60 minute incubation at 22° C.
Experimental: After a 60 minute incubation at 22° C., the reaction was measured using a PerkinElmer EnVision multimode plate reader via TR-FRET dual wavelength detection, and the percent of control (POC) calculated using a ratiometric emission factor. […] The POC values were fit to a 4-parameter logistic curve and the IC50 value was determined as the concentration where the curve crosses 50 POC.
ND stands for “not determined.”
Target sequence in this assay (P01116 other isoform, or with tags, fused parts or gaps G12D): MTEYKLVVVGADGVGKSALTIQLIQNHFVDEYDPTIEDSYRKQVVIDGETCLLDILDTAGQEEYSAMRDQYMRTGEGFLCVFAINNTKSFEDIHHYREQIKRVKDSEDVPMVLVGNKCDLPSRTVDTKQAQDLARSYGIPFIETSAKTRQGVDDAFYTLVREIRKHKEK

[3] = target: T1, KRas G12D; experiment: KRas G12D Surface Plasmon Resonance (SPR) Binding Assay; settings: Biacore T200, immobilized biotinylated KRAS protein, 1:1 binding model
Target sequence in this assay (P01116-2 other isoform, or with tags, fused parts or gaps G12D): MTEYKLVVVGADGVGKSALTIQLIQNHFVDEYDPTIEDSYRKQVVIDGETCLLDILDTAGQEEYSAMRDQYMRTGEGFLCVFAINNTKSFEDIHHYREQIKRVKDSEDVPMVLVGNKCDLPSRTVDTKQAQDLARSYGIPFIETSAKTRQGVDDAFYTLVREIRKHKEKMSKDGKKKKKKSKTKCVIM

[4] = phospho-ERK(Thr202/Tyr204) normalized to GAPDH, AGS cells, 3 hours, read-out: IC50

| SMILES | IC50 [1, 4] [nM] | IC50 [2] [nM] | IC50 ([1]; AGS, 3 h) [nM] | Kd [3] [nM] |
| --- | --- | --- | --- | --- |
| CCc1cccc2cccc(-c3ncc4c(N5CC6CCC(C5)N6)nc(OC[C@]56CCCN5[C@@H](COC(=O)NC)CC6)nc4c3F)c12 (single isomer, unassigned) [Example 432] | 106 | 1.9 |  |  |
| CN1CC[C@H](Oc2cccc(S(=O)(=O)F)c2)[C@H]1COc1nc(N2C[C@H]3CC[C@@H](C2)N3)c2cnc(-c3cccc4cccc(Cl)c34)c(F)c2n1 [Example 210, 3-(((2R,3S)-2-(((4-((1R,5S)-3,8-diazabicyclo[3.2.1]octan-3-yl)-7-(8-chloronaphthalen-1-yl)-8-fluoropyrido[4,3-d]pyrimidin-2-yl)oxy)methyl)-1-methylpyrrolidin-3-yl)oxy)benzenesulfonyl fluoride tris(2,2,2-trifluoroacetate)] |  | 5460 | > 16700 |  |
| Cc1cc2[nH]ncc2c(-c2ncc3c(N4C[C@H]5CC[C@@H](C4)N5)nc(OCC45CCCN4CC(F)C5)nc3c2F)c1Cl (mixture of isomers) [Example 376, 4-((1R,5S)-3,8-diazabicyclo[3.2.1]octan-3-yl)-7-(5-chloro-6-methyl-1H-indazol-4-yl)-8-fluoro-2-((2-fluorotetrahydro-1H-pyrrolizin-7a(5H)-yl)methoxy)pyrido[4,3-d]pyrimidine] | 582 |  |  |  |
| Fc1c(-c2cccc3cccc(Cl)c23)ncc2c(N3C[C@H]4CC[C@@H](C3)N4)nc(OCCCN3C[C@@H]4C[C@H]3CO4)nc12 [Example 103, (1S,4S)-5-(3-((4-((1R,5S)-3,8-diazabicyclo[3.2.1]octan-3-yl)-7-(8-chloronaphthalen-1-yl)-8-fluoropyrido[4,3-d]pyrimidin-2-yl)oxy)propyl)-2-oxa-5-azabicyclo[2.2.1]heptane] | > 16700 |  |  |  |
| CN1C[C@H](Oc2ccc(S(=O)(=O)F)cc2)C[C@H]1COc1nc(N2C[C@H]3CC[C@@H](C2)N3)c2cnc(-c3cccc4cccc(Cl)c34)c(F)c2n1 [Example 209, 4-(((3R,5S)-5-(((4-((1R,5S)-3,8-diazabicyclo[3.2.1]octan-3-yl)-7-(8-chloronaphthalen-1-yl)-8-fluoropyrido[4,3-d]pyrimidin-2-yl)oxy)methyl)-1-methylpyrrolidin-3-yl)oxy)benzenesulfonyl fluoride tris(2,2,2-trifluoroacetate)] |  | 2750 | > 16700 |  |
| CN1C[C@H](Oc2cccc(S(=O)(=O)F)c2)C[C@H]1COc1nc(N2C[C@H]3CC[C@@H](C2)N3)c2cnc(-c3cccc4cccc(Cl)c34)c(F)c2n1 [Example 208, 3-(((3R,5S)-5-(((4-((1R,5S)-3,8-diazabicyclo[3.2.1]octan-3-yl)-7-(8-chloronaphthalen-1-yl)-8-fluoropyrido[4,3-d]pyrimidin-2-yl)oxy)methyl)-1-methylpyrrolidin-3-yl)oxy)benzenesulfonyl fluoride tris 2,2,2-trifluoroacetate] |  | 1840 | > 16700 |  |
| CCc1cccc2cc(O)cc(-c3ncc4c(N5C[C@H]6CC[C@@H](C5)N6)nc(OC[C@]56CCCN5C[C@@H](F)C6)nc4c3F)c12 [Example 468, 4-(4-((1R,5S)-3,8-diazabicyclo[3.2.1]octan-3-yl)-8-fluoro-2-(((2S,7aR)-2-fluorohexahydro-1H-pyrrolizin-7a-yl)methoxy)pyrido[4,3-d]pyrimidin-7-yl)-5-ethylnaphthalen-2-ol] | 28.8 | < 0.002 |  |  |
| C#Cc1c(F)ccc2cc(O)cc(-c3ncc4c(N5C[C@H]6CC[C@@H](C5)N6)nc(OC[C@]56CCCN5C[C@@H](F)C6)nc4c3F)c12 [Example 482, 4-(4-((1R,5S)-3,8-diazabicyclo[3.2.1]octan-3-yl)-8-fluoro-2-(((2S,7aR)-2-fluorohexahydro-1H-pyrrolizin-7a-yl)methoxy)pyrido[4,3-d]pyrimidin-7-yl)-5-ethynyl-6-fluoronaphthalen-2-ol] | 3.4 |  |  |  |
| CCc1cccc2cccc(-c3ncc4c(N5CC6CCC(C5)N6)nc(OC[C@]56CCCN5[C@@H](COC(=O)N5CCOCC5)CC6)nc4c3F)c12 (single isomer, unassigned) [Example 431] | 74.3 | 1.4 |  |  |
| CN1CCC[C@H]1COc1nc(N2C[C@H]3CC[C@@H](C2)N3)c2cnc(-c3cccc4cccc(Cl)c34)cc2n1 [Example 123, 4-((1R,5S)-3,8-diazabicyclo[3.2.1]octan-3-yl)-7-(8-chloronaphthalen-1-yl)-2-(((S)-1-methylpyrrolidin-2-yl)methoxy)pyrido[4,3-d]pyrimidine] |  | 754 |  | 786 |
| Oc1cc(-c2ncc3c(N4C[C@H]5CC[C@@H](C4)N5)nc(OCCc4ccccn4)nc3c2F)c2ccccc2c1 [Example 4, 4-(4-((1R,5S)-3,8-diazabicyclo[3.2.1]octan-3-yl)-8-fluoro-2-(2-(pyridin-2-yl)ethoxy)pyrido[4,3-d]pyrimidin-7-yl)naphthalen-2-ol] |  | 496 |  | 156 |
| CCCOc1nc(N2C[C@H]3CC[C@@H](C2)N3)c2cnc(-c3cc(O)cc4ccccc34)c(F)c2n1 [Example 47, 4-(4-((1R,5S)-3,8-diazabicyclo[3.2.1]octan-3-yl)-8-fluoro-2-propoxypyrido[4,3-d]pyrimidin-7-yl)naphthalen-2-ol] |  | 265 |  | 510 |
| Oc1cc(-c2ncc3c(N4C[C@H]5CC[C@@H](C4)N5)nc(N4CC(O)C4)nc3c2F)c2ccccc2c1 [Example 37, 1-(4-((1R,5S)-3,8-diazabicyclo[3.2.1]octan-3-yl)-8-fluoro-7-(3-hydroxynaphthalen-1-yl)pyrido[4,3-d]pyrimidin-2-yl)azetidin-3-ol bis(2,2,2-trifluoroacetate)] |  | 405 |  | 494 |
| CN1CCC[C@H]1COc1nc(N2C[C@H]3CC[C@@H](C2)N3)c2cnc(-c3cccc4cccc(Cl)c34)c(F)c2n1 [Example 132, 4-((1R,5S)-3,8-diazabicyclo[3.2.1]octan-3-yl)-7-(8-chloronaphthalen-1-yl)-8-fluoro-2-(((S)-1-methylpyrrolidin-2-yl)methoxy)pyrido[4,3-d]pyrimidine] |  | 60.5 |  | 64.7 |
| COCCOc1nc(N2C[C@H]3CC[C@@H](C2)N3)c2cnc(-c3cc(O)cc4ccccc34)c(F)c2n1 [Example 70, 4-(4-((1R,5S)-3,8-diazabicyclo[3.2.1]octan-3-yl)-8-fluoro-2-(2-methoxyethoxy)pyrido[4,3-d]pyrimidin-7-yl)naphthalen-2-ol] |  | 356 |  | 417 |
| CN1CCC[C@H]1COc1nc(N2CC3CCC(C)(C2)N3)c2cnc(-c3cc(O)cc4ccccc34)c(F)c2n1 (stereo partly drawn) [Example 156, 4-(8-fluoro-4-(1-methyl-3,8-diazabicyclo[3.2.1]octan-3-yl)-2-(((S)-1-methylpyrrolidin-2-yl)methoxy)pyrido[4,3-d]pyrimidin-7-yl)naphthalen-2-ol bis(2,2,2-trifluoroacetate)] |  | 9.1 |  | 500000 |
| Cc1cccnc1CCOc1nc(N2C[C@H]3CC[C@@H](C2)N3)c2cnc(-c3cc(O)cc4ccccc34)c(F)c2n1 [Example 6, 4-(4-((1R,5S)-3,8-diazabicyclo[3.2.1]octan-3-yl)-8-fluoro-2-(2-(3-methylpyridin-2-yl)ethoxy)pyrido[4,3-d]pyrimidin-7-yl)naphthalen-2-ol] |  | 434 |  | 442 |
| Oc1cc(-c2ncc3c(N4C[C@H]5CC[C@@H](C4)N5)nc(OCCc4ccc(F)cn4)nc3c2F)c2ccccc2c1 [Example 102, 4-(4-((1R,5S)-3,8-diazabicyclo[3.2.1]octan-3-yl)-8-fluoro-2-(2-(5-fluoropyridin-2-yl)ethoxy)pyrido[4,3-d]pyrimidin-7-yl)naphthalen-2-ol] |  | 95.8 |  | 259 |
| Fc1c(-c2cccc3cccc(Cl)c23)ncc2c(N3C[C@H]4CC[C@@H](C3)N4)nc(OCC3COC3)nc12 [Example 53, 4-((1R,5S)-3,8-diazabicyclo[3.2.1]octan-3-yl)-7-(8-chloronaphthalen-1-yl)-8-fluoro-2-(oxetan-3-ylmethoxy)pyrido[4,3-d]pyrimidine] |  | 1880 |  | 4370 |
| Oc1cc(-c2ncc3c(N4C[C@H]5CC[C@@H](C4)N5)nc(OCC(F)(F)C(F)F)nc3c2F)c2ccccc2c1 [Example 52, 4-(4-((1R,5S)-3,8-diazabicyclo[3.2.1]octan-3-yl)-8-fluoro-2-(2,2,3,3-tetrafluoropropoxy)pyrido[4,3-d]pyrimidin-7-yl)naphthalen-2-ol] |  | 318 |  | 507 |
